We go through one compound from publication PMC5218480 (PLoS ONE, 2017).

The subject of the assay is MV-4-11 cells. The experiment in a line: Gene expression microarray analysis (Affymetrix PrimeView) and GSEA. The class given is cell-based, human. More on the design: RFU PODN (11730768_x_at) / Fold change /veh PODN (11730768_x_at) / RFU LINC00158 (11744669_a_at) / Fold change /veh LINC00158 (11744669_a_at) / RFU DUSP10 (11751237_a_at) / Fold change /veh DUSP10 (11751237_a_at) / RFU ID3 (11757404_x_at) / Fold change /veh ID3 (11757404_x_at) / RFU PLEKHG5 (11737974_s_at) / Fold change /veh PLEKHG5 (11737974_s_at) / RFU LRRC4B (11730491_at) / Fold change /veh LRRC4B (11730491_at) / RFU GIMAP4 (11747438_a_at) / Fold change /veh GIMAP4 (11747438_a_at) / RFU KRT8 (11758183_x_at) / Fold change /veh KRT8 (11758183_x_at) / RFU CNN1 (11734310_a_at) / Fold change /veh CNN1 (11734310_a_at) / RFU VPS37D (11726825_at) / Fold change /veh VPS37D (11726825_at) / RFU C10orf10 (11716522_x_at) / Fold change /veh C10orf10 (11716522_x_at) / RFU KIR2DL2 /// KIR2DL4 /// KIR2DL5A /// KIR2DL5B /// KIR2DS1 /// KIR2DS2 /// KIR2DS3 /// KIR2DS4 /// KIR3DL3 /// KIR3DL3 /// KIR3DS1 (11738374_at) / Fold change /veh KIR2DL2 /// KIR2DL4 /// KIR2DL5A /// KIR2DL5B /// KIR2DS1 /// KIR2DS2 /// KIR2DS3 /// KIR2DS4 /// KIR3DL3 /// KIR3DL3 /// KIR3DS1 (11738374_at) / RFU C1QL1 (11718748_at) / Fold change /veh C1QL1 (11718748_at) / RFU TMPRSS4 (11747572_a_at) / Fold change /veh TMPRSS4 (11747572_a_at) / RFU HAMP (11756126_x_at) / Fold change /veh HAMP (11756126_x_at) / RFU RNFT2 (11725882_a_at) / Fold change /veh RNFT2 (11725882_a_at) / RFU NR4A2 (11747474_a_at) / Fold change /veh NR4A2 (11747474_a_at) / RFU ABCC12 (11746883_a_at) / Fold change /veh ABCC12 (11746883_a_at) / RFU TMEM136 (11760407_x_at) / Fold change /veh TMEM136 (11760407_x_at) / RFU CLDN22 /// WWC2 (11732394_at) / Fold change /veh CLDN22 /// WWC2 (11732394_at) / RFU HLA-DPB1 (11760878_x_at) / Fold change /veh HLA-DPB1 (11760878_x_at) / RFU SPINT1 (11716480_a_at) / Fold change /veh SPINT1 (11716480_a_at) / RFU GAP43 (11754022_s_at) / Fold change /veh GAP43 (11754022_s_at) / RFU A4GNT (11735810_at) / Fold change /veh A4GNT (11735810_at) / RFU PRB3 (11715151_x_at) / Fold change /veh PRB3 (11715151_x_at) / RFU TUBB4B (11761932_at) / Fold change /veh TUBB4B (11761932_at) / RFU CAPN14 (11732068_a_at) / Fold change /veh CAPN14 (11732068_a_at) / RFU TMCC2 (11721928_a_at) / Fold change /veh TMCC2 (11721928_a_at) / RFU IRGQ (11745062_a_at) / Fold change /veh IRGQ (11745062_a_at) / RFU FAM174B (11720279_a_at) / Fold change /veh FAM174B (11720279_a_at) / RFU TMPRSS4 (11748680_a_at) / Fold change /veh TMPRSS4 (11748680_a_at) / RFU FAM212B (11763350_a_at) / Fold change /veh FAM212B (11763350_a_at) / RFU PLEKHG5 (11743358_a_at) / Fold change /veh PLEKHG5 (11743358_a_at) / RFU ZSCAN30 (11745921_a_at) / Fold change /veh ZSCAN30 (11745921_a_at) / RFU CMKLR1 (11741424_a_at) / Fold change /veh CMKLR1 (11741424_a_at) / RFU LOC101060620 /// MAPK8IP1 (11723275_at) / Fold change /veh LOC101060620 /// MAPK8IP1 (11723275_at) / RFU SPTSSB (11747773_x_at) / Fold change /veh SPTSSB (11747773_x_at) / RFU PRSS12 (11739890_at) / Fold change /veh PRSS12 (11739890_at) / RFU BIN1 (11741810_x_at) / Fold change /veh BIN1 (11741810_x_at) / RFU WNT11 (11732464_a_at) / Fold change /veh WNT11 (11732464_a_at) / RFU C10orf10 (11716521_a_at) / Fold change /veh C10orf10 (11716521_a_at) / RFU C5orf56 (11738089_at) / Fold change /veh C5orf56 (11738089_at) / RFU CYB561 (11721691_x_at) / Fold change /veh CYB561 (11721691_x_at) / RFU ANKRD19P (11752326_a_at) / Fold change /veh ANKRD19P (11752326_a_at) / RFU OR2T12 /// OR2T33 /// OR2T8 (11738714_s_at) / Fold change /veh OR2T12 /// OR2T33 /// OR2T8 (11738714_s_at) / RFU VCAN (11748164_a_at) / Fold change /veh VCAN (11748164_a_at) / RFU JSRP1 (11732532_at) / Fold change /veh JSRP1 (11732532_at) / RFU KRTAP10-11 (11738290_x_at) / Fold change /veh KRTAP10-11 (11738290_x_at) / RFU MYO3A (11730013_a_at) / Fold change /veh MYO3A (11730013_a_at) / RFU EBF3 (11725865_a_at) / Fold change /veh EBF3 (11725865_a_at) / RFU CAMK2N1 (11719241_x_at) / Fold change /veh CAMK2N1 (11719241_x_at) / RFU C5orf56 (11738088_a_at) / Fold change /veh C5orf56 (11738088_a_at) / RFU OLFML3 (11715873_a_at) / Fold change /veh OLFML3 (11715873_a_at) / RFU LOC100653217 /// NTM (11731650_a_at) / Fold change /veh LOC100653217 /// NTM (11731650_a_at) / RFU MAPK11 (11762145_a_at) / Fold change /veh MAPK11 (11762145_a_at) / RFU FIZ1 (11724087_x_at) / Fold change /veh FIZ1 (11724087_x_at) / RFU OASL (11726364_x_at) / Fold change /veh OASL (11726364_x_at) / RFU SOX15 (11748057_x_at) / Fold change /veh SOX15 (11748057_x_at) / RFU CD79A (11719716_a_at) / Fold change /veh CD79A (11719716_a_at) / RFU HIST1H1D (11736915_at) / Fold change /veh HIST1H1D (11736915_at) / RFU CASKIN2 (11723855_a_at) / Fold change /veh CASKIN2 (11723855_a_at) / RFU LOC730098 (11760151_x_at) / Fold change /veh LOC730098 (11760151_x_at) / RFU OR4N2 (11742367_at) / Fold change /veh OR4N2 (11742367_at) / RFU PRRT2 (11749266_a_at) / Fold change /veh PRRT2 (11749266_a_at) / RFU SNX32 (11753110_a_at) / Fold change /veh SNX32 (11753110_a_at) / RFU CDHR5 (11726645_a_at) / Fold change /veh CDHR5 (11726645_a_at) / RFU RCAN1 (11760418_a_at) / Fold change /veh RCAN1 (11760418_a_at) / RFU FAM167A (11723789_a_at) / Fold change /veh FAM167A (11723789_a_at) / RFU FAM26E (11764081_at) / Fold change /veh FAM26E (11764081_at) / RFU ISYNA1 (11749810_s_at) / Fold change /veh ISYNA1 (11749810_s_at) / RFU ACY1 (11761880_at) / Fold change /veh ACY1 (11761880_at) / RFU 11764098_at / Fold change /veh 11764098_at / RFU SAMD14 (11745864_x_at) / Fold change /veh SAMD14 (11745864_x_at) / RFU NPB (11741838_a_at) / Fold change /veh NPB (11741838_a_at) / RFU TMPRSS6 (11731388_a_at) / Fold change /veh TMPRSS6 (11731388_a_at) / RFU KRTAP10-2 (11738614_at) / Fold change /veh KRTAP10-2 (11738614_at) / RFU ARHGAP8 /// PRR5-ARHGAP8 (11727945_x_at) / Fold change /veh ARHGAP8 /// PRR5-ARHGAP8 (11727945_x_at) / RFU KRTAP5-7 /// NADSYN1 (11734609_at) / Fold change /veh KRTAP5-7 /// NADSYN1 (11734609_at) / RFU RASL12 (11751679_a_at) / Fold change /veh RASL12 (11751679_a_at) / RFU CDKN2B (11736163_a_at) / Fold change /veh CDKN2B (11736163_a_at) / RFU PRF1 (11729649_at) / Fold change /veh PRF1 (11729649_at) / RFU, ZNF638 /// ZNF638-IT1 / Fold change vs veh, ZNF638 /// ZNF638-IT1 / RFU, PANK3 / Fold change vs veh, PANK3 / RFU, SH3YL1 / Fold change vs veh, SH3YL1 / RFU, ZEB2 / Fold change vs veh, ZEB2 / RFU, NRIP1 / Fold change vs veh, NRIP1 / RFU, PTTG1IP / Fold change vs veh, PTTG1IP / RFU, CAPN2 / Fold change vs veh, CAPN2 / RFU, MED14 / Fold change vs veh, MED14 / RFU, SNORA58 / Fold change vs veh, SNORA58 / RFU, C1orf63 / Fold change vs veh, C1orf63 / RFU, LRRFIP1 / Fold change vs veh, LRRFIP1 / RFU, NDUFAF7 / Fold change vs veh, NDUFAF7 / RFU, SLC12A2 / Fold change vs veh, SLC12A2 / RFU, IBTK / Fold change vs veh, IBTK / RFU, ESF1 / Fold change vs veh, ESF1 / Fold change vs veh, TMEM50B / RFU, TAOK1 / Fold change vs veh, TAOK1 / RFU, ACBD3 / Fold change vs veh, ACBD3 / RFU, TMA16 / Fold change vs veh, TMA16 / RFU, RWDD3 / Fold change vs veh, RWDD3 / RFU, BCAT1 / Fold change vs veh, BCAT1 / RFU, EDEM3 / Fold change vs veh, EDEM3 / RFU, TMEM33 / Fold change vs veh, TMEM33 / RFU, WDR75 / Fold change vs veh, WDR75 / RFU, AHCTF1 / Fold change vs veh, AHCTF1 / RFU, TFRC / Fold change vs veh, TFRC / RFU, ZDHHC17 / Fold change vs veh, ZDHHC17 / RFU, NOM1 / Fold change vs veh, NOM1 / RFU, ARL8B / Fold change vs veh, ARL8B / RFU, ZBTB11 / Fold change vs veh, ZBTB11 / RFU, TAMM41 / Fold change vs veh, TAMM41 / RFU, KIAA1704 /// LOC100996395 / Fold change vs veh, KIAA1704 /// LOC100996395 / RFU, ING1 / Fold change vs veh, ING1 / RFU, TRMT61B / Fold change vs veh, TRMT61B / RFU, FUBP3 / Fold change vs veh, FUBP3 / RFU, TP53 / Fold change vs veh, TP53 / RFU, TNKS2 / Fold change vs veh, TNKS2 / RFU, ZFP14 / Fold change vs veh, ZFP14 / RFU, ACTR2 / Fold change vs veh, ACTR2 / RFU, PPP3R1 / Fold change vs veh, PPP3R1 / RFU, PIK3R1 / Fold change vs veh, PIK3R1 / RFU, HNRNPA1 / Fold change vs veh, HNRNPA1 / RFU, RNF170 / Fold change vs veh, RNF170 / RFU, ZNF28 / Fold change vs veh, ZNF28 / RFU, RNGTT / Fold change vs veh, RNGTT / RFU, OGT / Fold change vs veh, OGT / RFU, BRD1 / Fold change vs veh, BRD1 / RFU, MARS / Fold change vs veh, MARS / RFU, ZNF655 / Fold change vs veh, ZNF655 / RFU, FAHD1 / Fold change vs veh, FAHD1 / RFU, BDP1 / Fold change vs veh, BDP1 / RFU, LRRCC1 / Fold change vs veh, LRRCC1 / RFU, ARID1A / Fold change vs veh, ARID1A / RFU, ZNF146 / Fold change vs veh, ZNF146 / RFU, ZNF330 / Fold change vs veh, ZNF330 / RFU, GPN3 / Fold change vs veh, GPN3 / RFU, C9orf123 / Fold change vs veh, C9orf123 / RFU, N4BP2L2 / Fold change vs veh, N4BP2L2 / RFU, ARFIP1 / Fold change vs veh, ARFIP1 / RFU, FAM179B / Fold change vs veh, FAM179B / RFU, BCL10 / Fold change vs veh, BCL10 / RFU, UHRF1BP1L / Fold change vs veh, UHRF1BP1L / RFU, BET1 / Fold change vs veh, BET1 / RFU, CNOT2 / Fold change vs veh, CNOT2 / RFU, ZNF268 / Fold change vs veh, ZNF268 / Fold change vs veh, ZNF507 / RFU, DGCR2 / Fold change vs veh, DGCR2 / RFU, WDSUB1 / Fold change vs veh, WDSUB1 / Fold change vs veh, HSP90B1 /// MIR3652 / RFU, ADSS / Fold change vs veh, ADSS / RFU, GK / Fold change vs veh, GK / RFU, ZNF148 / Fold change vs veh, ZNF148 / RFU, TAF9 / Fold change vs veh, TAF9 / RFU, SLC1A5 / Fold change vs veh, SLC1A5 / RFU, SLMO2 / Fold change vs veh, SLMO2 / RFU, ABCC4 / Fold change vs veh, ABCC4 / RFU, LOC101060439 /// RAP1B / Fold change vs veh, LOC101060439 /// RAP1B / RFU, RFX7 / Fold change vs veh, RFX7 / RFU, GTPBP10 / Fold change vs veh, GTPBP10 / RFU, CNEP1R1 / Fold change vs veh, CNEP1R1 / RFU, BIVM-ERCC5 /// ERCC5 / Fold change vs veh, BIVM-ERCC5 /// ERCC5 / RFU, ILF3 / Fold change vs veh, ILF3 / RFU 11762660_at / Fold change /veh 11762660_at / RFU VCAN (11757783_s_at) / Fold change /veh VCAN (11757783_s_at) / RFU DDX43 (11728927_at) / Fold change /veh DDX43 (11728927_at) / RFU KRT8 (11758188_x_at) / Fold change /veh KRT8 (11758188_x_at) / RFU NKD1 (11759106_at) / Fold change /veh NKD1 (11759106_at) / RFU SRD5A1 (11742802_a_at) / Fold change /veh SRD5A1 (11742802_a_at) / RFU TPSAB1 /// TPSB2 (11721975_s_at) / Fold change /veh TPSAB1 /// TPSB2 (11721975_s_at) / RFU GSTM3 (11746129_a_at) / Fold change /veh GSTM3 (11746129_a_at) / RFU IL23R (11737362_x_at) / Fold change /veh IL23R (11737362_x_at) / RFU TMEM51 (11727254_a_at) / Fold change /veh TMEM51 (11727254_a_at) / RFU PIWIL2 (11732686_x_at) / Fold change /veh PIWIL2 (11732686_x_at) / RFU ORM1 (11744905_x_at) / Fold change /veh ORM1 (11744905_x_at) / RFU CCDC152 (11743942_at) / Fold change /veh CCDC152 (11743942_at) / RFU ECM1 (11717891_a_at) / Fold change /veh ECM1 (11717891_a_at) / RFU IL23R (11748794_a_at) / Fold change /veh IL23R (11748794_a_at) / RFU TNFAIP8L3 (11732012_x_at) / Fold change /veh TNFAIP8L3 (11732012_x_at) / RFU MBOAT4 (11741988_at) / Fold change /veh MBOAT4 (11741988_at) / RFU 11764193_at / Fold change /veh 11764193_at / RFU TMEM53 (11763286_at) / Fold change /veh TMEM53 (11763286_at) / RFU MAGEB2 (11727129_at) / Fold change /veh MAGEB2 (11727129_at) / RFU TMEM200A (11744735_a_at) / Fold change /veh TMEM200A (11744735_a_at) / RFU CCDC152 (11751479_a_at) / Fold change /veh CCDC152 (11751479_a_at) / RFU FAM211A (11726209_a_at) / Fold change /veh FAM211A (11726209_a_at) / RFU RGS16 (11746705_a_at) / Fold change /veh RGS16 (11746705_a_at) / RFU VCAN (11755009_s_at) / Fold change /veh VCAN (11755009_s_at) / RFU RHOB (11743442_s_at) / Fold change /veh RHOB (11743442_s_at) / RFU RGS16 (11720943_a_at) / Fold change /veh RGS16 (11720943_a_at) / RFU RGS16 (11720944_at) / Fold change /veh RGS16 (11720944_at) / RFU, VPS4B / Fold change vs veh, VPS4B / RFU, CREB1 / Fold change vs veh, CREB1 / RFU, DNAJC13 / Fold change vs veh, DNAJC13 / RFU, GNAQ / Fold change vs veh, GNAQ / RFU, CDK5R1 / Fold change vs veh, CDK5R1 / RFU, ZRANB3 / Fold change vs veh, ZRANB3 / RFU, CUL4A / Fold change vs veh, CUL4A / RFU, CCNY / Fold change vs veh, CCNY / RFU, UFL1 / Fold change vs veh, UFL1 / RFU, COG3 / Fold change vs veh, COG3 / RFU, DIAPH2 / Fold change vs veh, DIAPH2 / RFU, SKA2 / Fold change vs veh, SKA2 / RFU, AFF3 / Fold change vs veh, AFF3 / RFU, LMF1 / Fold change vs veh, LMF1 / RFU, IPO11 / Fold change vs veh, IPO11 / RFU, DFFB / Fold change vs veh, DFFB / RFU, FOXP1 / Fold change vs veh, FOXP1 / RFU, CARD8 / Fold change vs veh, CARD8 / RFU, STRN3 / Fold change vs veh, STRN3 / RFU, ADK / Fold change vs veh, ADK / RFU, RASSF2 / Fold change vs veh, RASSF2 / RFU, WIPF1 / Fold change vs veh, WIPF1 / RFU, LARP1B / Fold change vs veh, LARP1B / RFU, RASA1 / Fold change vs veh, RASA1 / RFU, RB1 / Fold change vs veh, RB1 / RFU, PPFIA1 / Fold change vs veh, PPFIA1 / RFU, MAT2A / Fold change vs veh, MAT2A / RFU, CCT5 / Fold change vs veh, CCT5 / RFU, WDR92 / Fold change vs veh, WDR92 / RFU, CUX1 / Fold change vs veh, CUX1 / RFU, TTC7A / Fold change vs veh, TTC7A / RFU, TMEM135 / Fold change vs veh, TMEM135 / RFU, DEPTOR / Fold change vs veh, DEPTOR / RFU, CPM / Fold change vs veh, CPM / RFU, DNAJB6 / Fold change vs veh, DNAJB6 / RFU, CACNA2D3 / Fold change vs veh, CACNA2D3 / RFU, DTX4 / Fold change vs veh, DTX4 / RFU, TFCP2 / Fold change vs veh, TFCP2 / RFU, GMCL1 /// GMCL1P1 / Fold change vs veh, GMCL1 /// GMCL1P1 / RFU, AEBP2 / Fold change vs veh, AEBP2 / RFU, SNHG1 /// SNORD22 /// SNORD25 /// SNORD26 /// SNORD27 /// SNORD28 /// SNORD29 /// SNORD31 / Fold change vs veh, SNHG1 /// SNORD22 /// SNORD25 /// SNORD26 /// SNORD27 /// SNORD28 /// SNORD29 /// SNORD31 / Fold change (Aza/veh), C12orf56 (ProbeSet 11735607_a_at) / Fold change (ACY-1035/veh), C12orf56 (ProbeSet 11735607_a_at) / Fold change (Aza/veh), FGFR1OP (ProbeSet 11751329_s_at) / Fold change (ACY-1035/veh), FGFR1OP (ProbeSet 11751329_s_at) / Fold change (Aza/veh), VPS36 (ProbeSet 11739960_a_at) / Fold change (ACY-1035/veh), VPS36 (ProbeSet 11739960_a_at) / RFU SYPL1 (11715823_x_at) / Fold change /veh SYPL1 (11715823_x_at) / RFU IGFBP7 (11715501_s_at) / Fold change /veh IGFBP7 (11715501_s_at) / RFU REEP3 (11722064_at) / Fold change /veh REEP3 (11722064_at) / RFU IGLL1 (11728026_x_at) / Fold change /veh IGLL1 (11728026_x_at): dose or concentration left out as unconfirmed. The following applies: MV-4-11 cells, 48 hours.

In the case of `Nc1ncn([C@@H]2O[C@H](CO)[C@@H](O)[C@H]2O)c(=O)n1` [azacitidine], the “Fold change /veh JSRP1 (11732532_at)” value worked out at 1.00.
